Structures can show the parent of a compound that is named as a salt.
What was measured:
Assay type in all cases: biochemical
[1] = target: T1, human JAK2 (a.a. 828-1132) (Homo sapiens, UniProt O60674); experiment: In vitro JAK kinase assay (HTRF, phosphorylation of a biotinylated peptide), JAK2; conditions: method AA1 (30 μM ATP) or AA2 (1000 μM ATP), not stated per value
T1 construct: JAK2 (a.a. 828-1132); His tag (N); made in house; host or cells: insect cells (baculovirus)
In short: (§1)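 Kinase reactions ran at room temperature for 1 h with ATP matched per isoform (JAK1 90 μM, JAK2 30 μM, JAK3 3 μM). After an EDTA stop, the phosphorylated biotin-peptide was read by HTRF using Eu-Py20 and SA-APC after 40 min binding.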

[2] = target: TYK2 (Homo sapiens, UniProt P29597); experiment: TYK2 kinase inhibition (Table A1)
[3] = target: T2, human JAK3 (a.a. 781-1124) (Homo sapiens, UniProt P52333); experiment: In vitro JAK kinase assay (HTRF, phosphorylation of a biotinylated peptide), JAK3; conditions: method AA1 (3 μM ATP) or AA2 (1000 μM ATP), not stated per value
T2 construct: JAK3 (a.a. 781-1124); His tag (N); made in house; host or cells: insect cells (baculovirus)
In short: as §1

[4] = target: T3, Recombinant Human Anaplastic Lymphoma Kinase (Homo sapiens, UniProt Q9UM73); experiment: ALK HTRF kinase assay; conditions: compound at 500 nM or 1 mM; 90 μM ATP
T3 construct: purchased Invitrogen, Carlsbad, Calif
In short: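 IC50 was obtained from a logistic fit of signal versus log inhibitor concentration, using pre- and post-transition baselines and a Hill slope. The signal reported tyrosine phosphorylation of a biotinylated peptide by recombinant human kinase, detected as Eu-to-APC energy transfer.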

[5] = target: T4, human JAK1 (a.a. 837-1142) (Homo sapiens, UniProt P23458); experiment: In vitro JAK kinase assay (HTRF, phosphorylation of a biotinylated peptide), JAK1; conditions: method AA1 (90 μM ATP) or AA2 (1000 μM ATP), not stated per value; read-out: JAK1 IC50
T4 construct: human JAK1 (a.a. 837-1142); His tag (N); made in house; host or cells: insect cells (baculovirus)
In short: as §1

T2 sequence (P52333 781-1124): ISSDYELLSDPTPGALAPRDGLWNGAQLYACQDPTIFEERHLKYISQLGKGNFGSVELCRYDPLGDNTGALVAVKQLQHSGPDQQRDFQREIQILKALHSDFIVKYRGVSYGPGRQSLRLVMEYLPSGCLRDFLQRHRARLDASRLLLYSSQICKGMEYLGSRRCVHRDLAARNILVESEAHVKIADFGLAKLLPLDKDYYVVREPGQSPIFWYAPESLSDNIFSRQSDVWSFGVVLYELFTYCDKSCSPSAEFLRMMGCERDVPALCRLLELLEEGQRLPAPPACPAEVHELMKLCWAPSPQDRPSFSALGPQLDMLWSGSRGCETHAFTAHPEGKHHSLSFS
T4 sequence (P23458 849-1154): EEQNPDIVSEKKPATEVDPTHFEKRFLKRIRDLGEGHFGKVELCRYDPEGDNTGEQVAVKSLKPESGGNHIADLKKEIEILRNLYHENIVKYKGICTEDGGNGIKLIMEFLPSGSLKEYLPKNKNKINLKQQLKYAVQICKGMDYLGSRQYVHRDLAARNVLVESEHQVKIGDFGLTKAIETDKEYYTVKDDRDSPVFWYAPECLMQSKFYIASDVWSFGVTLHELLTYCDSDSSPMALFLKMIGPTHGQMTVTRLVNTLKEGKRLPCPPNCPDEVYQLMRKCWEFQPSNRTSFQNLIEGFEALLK
T1 sequence (O60674 828-1132): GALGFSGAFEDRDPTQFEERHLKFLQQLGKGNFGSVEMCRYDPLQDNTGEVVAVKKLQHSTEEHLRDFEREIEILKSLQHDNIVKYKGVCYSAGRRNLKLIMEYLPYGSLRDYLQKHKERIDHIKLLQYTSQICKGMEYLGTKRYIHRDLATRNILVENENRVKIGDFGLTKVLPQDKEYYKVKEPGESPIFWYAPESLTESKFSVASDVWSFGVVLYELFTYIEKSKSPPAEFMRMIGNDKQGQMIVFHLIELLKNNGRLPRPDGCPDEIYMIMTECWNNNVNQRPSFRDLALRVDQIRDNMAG
T3 sequence (Q9UM73 19-1620): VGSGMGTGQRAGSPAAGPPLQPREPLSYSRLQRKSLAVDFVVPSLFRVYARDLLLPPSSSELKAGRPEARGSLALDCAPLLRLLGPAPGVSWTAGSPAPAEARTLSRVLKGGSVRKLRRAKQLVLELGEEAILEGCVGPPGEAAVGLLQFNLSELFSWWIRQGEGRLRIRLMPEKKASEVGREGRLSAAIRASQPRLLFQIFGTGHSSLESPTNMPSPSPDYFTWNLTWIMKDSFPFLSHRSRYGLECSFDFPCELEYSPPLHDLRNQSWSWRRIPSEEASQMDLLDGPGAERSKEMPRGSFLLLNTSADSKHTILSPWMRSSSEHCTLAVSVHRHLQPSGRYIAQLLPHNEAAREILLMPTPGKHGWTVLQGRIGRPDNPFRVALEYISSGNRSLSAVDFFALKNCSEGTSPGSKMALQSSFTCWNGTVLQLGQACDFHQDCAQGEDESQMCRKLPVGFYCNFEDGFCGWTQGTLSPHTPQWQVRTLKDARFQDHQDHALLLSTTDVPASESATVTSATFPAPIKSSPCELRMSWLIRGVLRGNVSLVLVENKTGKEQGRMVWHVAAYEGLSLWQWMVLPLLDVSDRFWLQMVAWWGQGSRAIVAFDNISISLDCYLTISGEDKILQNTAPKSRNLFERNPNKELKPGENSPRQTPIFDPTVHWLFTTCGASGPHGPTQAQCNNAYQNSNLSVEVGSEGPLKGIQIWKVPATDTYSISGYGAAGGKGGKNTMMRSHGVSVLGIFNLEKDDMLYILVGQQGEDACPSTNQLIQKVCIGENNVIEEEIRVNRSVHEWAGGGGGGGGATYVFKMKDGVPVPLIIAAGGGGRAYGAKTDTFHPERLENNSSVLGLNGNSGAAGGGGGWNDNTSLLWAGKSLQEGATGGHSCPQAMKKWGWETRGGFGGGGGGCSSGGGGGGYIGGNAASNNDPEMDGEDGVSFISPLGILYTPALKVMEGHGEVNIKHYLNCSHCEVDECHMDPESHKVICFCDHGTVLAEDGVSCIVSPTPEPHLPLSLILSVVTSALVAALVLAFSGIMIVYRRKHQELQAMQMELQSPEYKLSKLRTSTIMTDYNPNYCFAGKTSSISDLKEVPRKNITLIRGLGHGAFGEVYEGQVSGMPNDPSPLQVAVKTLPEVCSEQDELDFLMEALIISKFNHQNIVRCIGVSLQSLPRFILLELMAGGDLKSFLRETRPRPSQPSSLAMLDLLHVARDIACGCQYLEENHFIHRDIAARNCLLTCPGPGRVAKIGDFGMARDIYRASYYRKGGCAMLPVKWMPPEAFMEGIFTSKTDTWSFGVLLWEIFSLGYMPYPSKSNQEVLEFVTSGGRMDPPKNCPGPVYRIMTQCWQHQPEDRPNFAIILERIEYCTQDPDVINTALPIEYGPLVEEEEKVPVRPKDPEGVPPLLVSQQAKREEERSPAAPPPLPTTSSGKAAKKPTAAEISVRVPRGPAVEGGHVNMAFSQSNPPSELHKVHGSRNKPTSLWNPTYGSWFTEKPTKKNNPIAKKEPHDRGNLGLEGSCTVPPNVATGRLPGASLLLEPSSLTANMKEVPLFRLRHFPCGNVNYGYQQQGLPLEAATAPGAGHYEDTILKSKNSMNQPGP
Sequence of TYK2 (P29597 whole entry): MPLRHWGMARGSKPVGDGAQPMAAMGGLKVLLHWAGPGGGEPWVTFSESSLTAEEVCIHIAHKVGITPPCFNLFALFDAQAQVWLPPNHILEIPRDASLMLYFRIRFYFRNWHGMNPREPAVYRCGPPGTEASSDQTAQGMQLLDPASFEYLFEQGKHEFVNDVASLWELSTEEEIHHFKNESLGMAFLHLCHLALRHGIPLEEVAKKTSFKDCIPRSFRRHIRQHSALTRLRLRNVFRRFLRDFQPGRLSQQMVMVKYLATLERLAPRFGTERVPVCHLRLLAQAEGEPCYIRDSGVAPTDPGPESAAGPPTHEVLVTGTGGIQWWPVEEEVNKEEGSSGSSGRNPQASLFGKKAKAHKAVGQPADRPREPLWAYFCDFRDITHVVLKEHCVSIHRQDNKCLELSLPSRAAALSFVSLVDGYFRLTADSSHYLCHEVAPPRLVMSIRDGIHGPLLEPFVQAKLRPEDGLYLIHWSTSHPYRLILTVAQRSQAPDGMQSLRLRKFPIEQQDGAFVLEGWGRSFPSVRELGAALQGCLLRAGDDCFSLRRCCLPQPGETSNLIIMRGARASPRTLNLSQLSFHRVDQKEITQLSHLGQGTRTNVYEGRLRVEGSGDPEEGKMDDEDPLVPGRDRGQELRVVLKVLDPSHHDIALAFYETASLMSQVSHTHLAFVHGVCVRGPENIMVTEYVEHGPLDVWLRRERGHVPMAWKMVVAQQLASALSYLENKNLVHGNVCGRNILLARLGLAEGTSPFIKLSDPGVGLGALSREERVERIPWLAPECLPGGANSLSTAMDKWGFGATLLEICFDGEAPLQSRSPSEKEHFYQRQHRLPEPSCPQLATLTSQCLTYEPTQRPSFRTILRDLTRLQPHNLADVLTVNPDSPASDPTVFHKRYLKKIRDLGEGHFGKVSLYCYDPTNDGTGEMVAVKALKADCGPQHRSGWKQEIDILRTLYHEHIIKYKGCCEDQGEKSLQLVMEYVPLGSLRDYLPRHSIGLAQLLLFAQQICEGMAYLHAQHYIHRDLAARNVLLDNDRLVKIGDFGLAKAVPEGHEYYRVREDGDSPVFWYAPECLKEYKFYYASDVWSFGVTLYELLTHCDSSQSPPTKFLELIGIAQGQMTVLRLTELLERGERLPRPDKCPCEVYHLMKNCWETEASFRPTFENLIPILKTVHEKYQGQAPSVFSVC

SMILES | IC50 [1] | IC50 [2] | IC50 [3] | ALK % of inhibition at a concentration of 500 nM or 1 mM [4] | IC50 [5]
O=C(CC1CCNC1)Nc1ccc2cc1CCc1cncc(c1)Nc1ncc(Cl)c(n1)N2 (stereo not shown) [Example A105, N-[6-Chloro-2,4,8,18,22-pentaazatetracyclo[14.3.1.1(3,7).1(9,13)]docosa-1(20),3(22),4,6,9(21),10,12,16,18-nonaen-12-yl]-2-pyrrolidin-3-ylacetamide tris(trifluoroacetate)] | 40 nM | 44 nM | 112 nM | 23% | 29 nM
NCCC(=O)Nc1ccc2cc1CCc1cccc(c1)Nc1ncc(Cl)c(n1)N2 [Example A108, 3-Amino-N-[6-chloro-2,4,8,22-tetraazatetracyclo[14.3.1.1(3,7).1(9,13)]docosa-1(20),3(22),4,6,9(21),10,12,16,18-nonaen-12-yl]propanamide bis(trifluoroacetate)] | 32 nM | 15 nM | 26 nM | 32% | 6 nM
O=C(Nc1ccc2cc1CCc1cccc(c1)Nc1ncc(Cl)c(n1)N2)[C@@H]1CCCN1 [Example A110, (2S)—N-[6-Chloro-2,4,8,22-tetraazatetracyclo[14.3.1.1(3,7).1(9,13)]docosa-1(20),3(22),4,6,9(21),10,12,16,18-nonaen-12-yl]pyrrolidine-2-carboxamide bis(trifluoroacetate)] | 26 nM | 15 nM | 14 nM | 45% | 32 nM
C[N+]1(C)CCC(CC(=O)Nc2ccc3cc2CCc2cccc(c2)Nc2ncc(Cl)c(n2)N3)CC1 [Example A111, 4-(2-{[6-Chloro-2,4,8,22-tetraazatetracyclo[14.3.1.1(3,7).1(9,13)]docosa-1(20),3(22),4,6,9(21),10,12,16,18-nonaen-12-yl]amino}-2-oxoethyl)-1,1-dimethylpiperidinium bis(trifluoroacetate)] | 103 nM | 148 nM | 298 nM | 23% | 45 nM
CC(C)(C)C(=O)N1CCC(CC(=O)Nc2ccc3cc2CCc2cncc(c2)Nc2ncc(Cl)c(n2)N3)CC1 [Example A112, N-[6-Chloro-2,4,8,18,22-pentaazatetracyclo[14.3.1.1(3,7).1(9,13)]docosa-1(20),3(22),4,6,9(21),10,12,16,18-nonaen-12-yl]-2-[1-(2,2-dimethylpropanoyl)piperidin-4-yl]acetamide bis(trifluoroacetate)] | 38 nM | 61 nM | 239 nM | 20% | 8 nM
CC(C)(C)NC(=O)N1CCC(CC(=O)Nc2ccc3cc2CCc2cncc(c2)Nc2ncc(Cl)c(n2)N3)CC1 [Example A113, N-(tert-Butyl)-4-(2-{[6-chloro-2,4,8,18,22-pentaazatetracyclo[14.3.1.1(3,7).1(9,13)]docosa-1(20),3(22),4,6,9(21),10,12,16,18-nonaen-12-yl]amino}-2-oxoethyl)piperidine-1-carboxamide bis(trifluoroacetate)] | 54 nM | 61 nM | 238 nM | 14% | 17 nM
O=C(CN1CCNCC1)Nc1ccc2cc1CCc1cncc(c1)Nc1ncc(Cl)c(n1)N2 [Example A115, N-[6-Chloro-2,4,8,18,22-pentaazatetracyclo[14.3.1.1(3,7).1(9,13)]docosa-1(20),3(22),4,6,9(21),10,12,16,18-nonaen-12-yl]-2-piperazin-1-acetamide tetrakis(trifluoroacetate)] | 42 nM | 45 nM | 300 nM | 20% | 34 nM
O=C(CCC1CCNCC1)Nc1ccc2cc1CCc1cccc(c1)Nc1ncc(Cl)c(n1)N2 [Example A116, N-[6-Chloro-2,4,8,22-tetraazatetracyclo[14.3.1.1(3,7).1(9,13)]docosa-1(20),3(22),4,6,9(21),10,12,16,18-nonaen-12-yl]-3piperidin-4-ylpropanamide bis(trifluoroacetate)] | 20 nM | 33 nM | 44 nM | 27% | 14 nM
O=C(CCC1CCNCC1)Nc1ccc2cc1CCc1cncc(c1)Nc1ncc(Cl)c(n1)N2 [Example A117, N-[6-Chloro-2,4,8,18,22-pentaaazatetracyclo[14.3.1.1(3,7).1(9,13)]docosa-1(20),3(22),4,6,9(21),10,12,16,18-nonaen-12-yl]-3piperidin-4-ylpropanamide tris(trifluoroacetate)] | 29 nM | 44 nM | 160 nM | 25% | 10 nM
Cc1cc(C(=O)N2CCN(CC(=O)Nc3ccc4cc3CCc3cncc(c3)Nc3ncc(Cl)c(n3)N4)CC2)no1 [Example A119, N-[6-Chloro-2,4,8,18,22-pentaazatetracyclo[14.3.1.1(3,7).1(9,13)]docosa-1(20),3(22),4,6,9(21),10,12,16,18-nonaen-12-yl]-2-{4-[(5-methylisoxazol-3-yl)carbonyl]piperazin-1-yl}acetamide tris(trifluoroacetate)] | 16 nM | 8.6 nM | 174 nM | 15% | 3.6 nM
Cc1cc(C(=O)N2CCC(C(=O)Nc3ccc4cc3CCc3cccc(c3)Nc3ncc(Cl)c(n3)N4)CC2)no1 [Example A120, N-[6-Chloro-2,4,8,22-tetraazatetracyclo[14.3.1.1(3,7).1(9,13)]docosa-1(20),3(22),4,6,9(21),10,12,16,18-nonaen-12-yl]-1-[(5-methylisoxazol-3-yl)carbonyl]piperidine-4-carboxamide trifluoroacetate] | 16 nM | 37 nM | 112 nM | 42% | 21 nM

Next, values leading:

IC50 [1] | IC50 [2] | IC50 [3] | ALK % of inhibition at a concentration of 500 nM or 1 mM [4] | IC50 [5] | SMILES
10 nM | 22 nM | 6.2 nM | 21% | 18 nM | C[C@H](O)C(=O)Nc1ccc2cc1CCc1cccc(c1)Nc1ncc(Cl)c(n1)N2 [Example A106, (2S)—N-[6-Chloro-2,4,8,22-tetraazatetracyclo[14.3.1.1(3,7).1(9,13)]docosa-1(20),3(22),4,6,9(21),10,12,16,18-nonaen-12-yl]-2-hydroxypropanamide trifluoroacetate]
10 nM | 4.2 nM | 8.2 nM | 39% | 4 nM | NCC(=O)Nc1ccc2cc1CCc1cccc(c1)Nc1ncc(Cl)c(n1)N2 [Example A107, 2-Amino-N-[6-chloro-2,4,8,22-tetraazatetracyclo[14.3.1.1(3,7).1(9,13)]docosa-1(20),3(22),4,6,9(21),10,12,16,18-nonaen-12-yl]acetamide bis(trifluoroacetate)]
11 nM | 7.5 nM | 7.3 nM | 33% | 5 nM | N[C@@H](CO)C(=O)Nc1ccc2cc1CCc1cccc(c1)Nc1ncc(Cl)c(n1)N2 [Example A109, (2S)-2-Amino-N-[6-chloro-2,4,8,22-tetraazatetracyclo[14.3.1.1(3,7).1(9,13)]docosa-1(20),3(22),4,6,9(21),10,12,16,18-nonaen-12-yl]-3-hydroxypropanamide bis(trifluoroacetate)]
13 nM | 33 nM | 59 nM | 19% | 25 nM | O=C(CN1CCNCC1)Nc1ccc2cc1CCc1cccc(c1)Nc1ncc(Cl)c(n1)N2 [Example A114, tris(trifluoroacetate)]
16 nM | 20 nM | 150 nM | 29% | 0.9 nM | O=C(CN1CCN(c2nc3cccnc3o2)CC1)Nc1ccc2cc1CCc1cncc(c1)Nc1ncc(Cl)c(n1)N2 [Example A118, N-[6-Chloro-2,4,8,18,22-pentaazatetracyclo[14.3.1.1(3,7).1(9,13)]docosa-1(20),3(22),4,6,9(21),10,12,16,18-nonaen-12-yl]-2-(4-[1,3]oxazolo[5,4-b]pyridin-2-ylpiperazin-1-yl)acetamide tris(trifluoroacetate)]
4.2 nM | 14 nM | 11 nM | 41% | 14 nM | Cc1cc(C(=O)N2CCCC(C(=O)Nc3ccc4cc3CCc3cccc(c3)Nc3ncc(Cl)c(n3)N4)C2)no1 (stereo not shown) [Example A121, N-[6-Chloro-2,4,8,22-tetraazatetracyclo[14.3.1.1(3,7).1(9,13)]docosa-1(20),3(22),4,6,9(21),10,12,16,18-nonaen-12-yl]-1-[(5-methylisoxazol-3-yl)carbonyl]piperidine-3-carboxamide trifluoroacetate]

Reference: US8871753B2, “Macrocyclic compounds and their use as kinase inhibitors” (Incyte Corporation, priority 2008, dated 2014)
